The numbers were not newly measured in US20250236629A1, “MEDIUM- OR MACRO-CYCLIC BENZYL-SUBSTITUTED HETEROCYCLE DERIVATIVES AND RELATED USES” (CENTESSA PHARMACEUTICALS (UK) LIMITED, priority 2022, published 2025), which cites them from elsewhere.

Like-named read-outs stand apart in the source and are kept apart here.

In data set [1] the target is T1, OX2R (Mus musculus, UniProt P58308).
T1 construct: host or cells: mice (WT, orexin-deficient and NT1 models), endogenous receptor in brain
T1 sequence (P58308 1-460): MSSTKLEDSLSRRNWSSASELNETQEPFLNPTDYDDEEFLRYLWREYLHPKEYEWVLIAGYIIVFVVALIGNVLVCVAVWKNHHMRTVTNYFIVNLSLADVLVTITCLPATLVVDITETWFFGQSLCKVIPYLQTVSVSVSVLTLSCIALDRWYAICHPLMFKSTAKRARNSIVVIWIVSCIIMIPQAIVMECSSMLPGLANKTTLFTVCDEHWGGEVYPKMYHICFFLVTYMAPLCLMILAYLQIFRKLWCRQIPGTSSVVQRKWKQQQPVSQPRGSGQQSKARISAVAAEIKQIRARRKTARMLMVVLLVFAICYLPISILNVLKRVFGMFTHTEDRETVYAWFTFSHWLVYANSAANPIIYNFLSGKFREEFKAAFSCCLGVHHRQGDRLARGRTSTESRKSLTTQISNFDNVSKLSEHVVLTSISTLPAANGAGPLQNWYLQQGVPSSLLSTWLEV
The settings on record: cited from earlier work.

In data set [2] the test system is individuals with NT1. As to conditions: initial clinical studies; cited from earlier work.

Regarding `COC(=O)N1CCC[C@H](NS(C)(=O)=O)[C@@H]1CO[C@H]1CC[C@@H](c2ccccc2)CC1` [TAK-925], the wakefulness entry in data set [1] (subcutaneous, OX2R-knockout mice) was “not in OX2R-knockout mice”; in data set [1] (subcutaneous, WT mice), “modestly increased wakefulness”; in data set [2], “substantial levels of increased wakefulness”. Besides, the cataplexy entry in data set [2] is given as “trends for decreasing cataplexy”.
With `COc1ccc(-c2cccc(C(=O)N(C)C)c2)cc1S(=O)(=O)Nc1cccc(NCCNC(=O)c2ccccc2N(C)C)c1` [YNT-185], the “sleep-onset REM periods and cataplexy-like events” value in data set [1] (NT1 mouse model) was “decrease sleep-onset REM periods and cataplexy-like events”. Further, in data set [1] (intraperitoneally or ICV, wild type (WT) and orexin ligand-deficient mice), the wakefulness result is “modestly increases wakefulness”.
